Experimental data from ChEMBL document CHEMBL1133011, “DNA binding, solubility, and partitioning characteristics of extended lexitropsins” (J Med Chem, 2000).

How the values were obtained:
[1] = Partition coefficient of the compound (logP); settings: octanol/water
[2] = Distribution coefficient of the compound at pH 7.4 (logD); settings: octanol/water
[3] = The ionization constant (pKa) for the compound

## CN(C)CCCNC(=O)c1cc(NC(=O)c2cc(NC(=O)/C=C/C(=O)Nc3cc(C(=O)Nc4cc(C(=O)NCCCN(C)C)n(C)c4)n(C)c3)cn2C)cn1C
[1]
  logP: 3.18
[2]
  logD: -1.03
[3]
  pKa: 9.5

## CN(C)CCCNC(=O)c1cc(NC(=O)c2cc(NC(=O)CNC(=O)c3cccc(C(=O)NCC(=O)Nc4cc(C(=O)Nc5cc(C(=O)NCCCN(C)C)n(C)c5)n(C)c4)c3)cn2C)cn1C
[1]
  logP: 1.47
[2]
  logD: -2.74
[3]
  pKa: 9.5

## CN(C)CCCNC(=O)c1cc(NC(=O)c2cc(NC(=O)c3cc(NC(=O)c4cc(NC(=O)c5cc(NC(=O)c6cc(NC(=O)CCCN(C)C)cn6C)cn5C)cn4C)cn3C)cn2C)cn1C
[1]
  logP: 4.68
[2]
  logD: 0.47
[3]
  pKa: 9.5

## CN(C)CCCNC(=O)c1cc(NC(=O)c2cc(NC(=O)c3cc(NC(=O)c4cc(NC(=O)c5cc(NC(=O)CCCN(C)C)cn5C)cn4C)cn3C)cn2C)cn1C
[1]
  logP: 3.89
[2]
  logD: -0.32
[3]
  pKa: 9.5

## CN(C)CCCNC(=O)c1cc(NC(=O)c2cc(NC(=O)c3cc(NC=O)cn3C)cn2C)cn1C
[1]
  logP: 2.17
[2]
  logD: 0.07
[3]
  pKa: 9.5

## Cn1cc(NC(=O)c2cc(NC(=O)c3cc(NC=O)cn3C)cn2C)cc1C(=O)NCCC(=N)N [STALLIMYCIN]
[1]
  logP: -0.87
[2]
  logD: -5.87
[3]
  pKa: 12.4
